Source: US20050154037A1, “Methods of using zonisamide as an adjunctive therapy for partial seizures” (Eisai Co., Ltd., priority 2004, published 2005)

Experiments:
carbonic anhydrase = conditions: relative to acetazolamide; called weak; cited from earlier work
sodium channels = conditions: in vitro; cited from earlier work
[1] = test system: GABA/benzodiazepine receptor ionophore complex; conditions: cited from earlier work
[2] = test system: dopaminergic and serotonergic neurotransmission; conditions: in vivo microdialysis; cited from earlier work
[3] = test system: cultured mouse spinal cord neurons; conditions: 10-30 μg/mL, cited from earlier work
[4] = NMS case reports: onset of symptoms after cessation of zonisamide therapy; assay type: in vivo, patients; conditions: person with Parkinson's Disease
Source text: Cases ZON1000813 and ZON1000929 are adult cases from Japan. In both cases the patients carried a diagnosis of Parkinson's disease (PD) and were enrolled in a double blind, placebo controlled […] study of zonisamide as a potential treatment for PD (Protocol AD81 ON-202-1). In both cases the development of NMS appeared after the withdrawal of zonisamide (from 2 days to 14 days, respectively). In the former case, the study blind was broken, and the patient was documented to be on study medication (zonisamide), while in the second case, the blind was not broken. Case ZON1000926 is a spontaneous pediatric case from the US. In all of these cases there were weak or no confounding factors present.
A person carried a diagnosis of Parkinson's Disease (PD). The patient was enrolled in a double-blind, placebo controlled Phase II study designed to assess the potential utility of zonisamide in the treatment of PD. The patient's symptoms of NMS appeared 2 days after cessation of zonisamide therapy. Patients with PD are known to be at a rare, but increased risk for NMS. But NMS can occur spontaneously. See Ueda, et al., Neurology, Vol. 52, pp. 777-781, 1999.
A person carried a diagnosis of Parkinson's Disease (PD). The patient was enrolled in a double-blind, placebo controlled Phase II study designed to assess the potential utility of zonisamide in the treatment of PD. […]

[5] = set-up: species or system patients; conditions: human, in vivo
Source text: The pharmacovigilance data that were collected, reviewed and analyzed provided the following information in respect of the incidence of NMS. To date, a total of 3 cases (two adult and one pediatric) fulfill the criteria of potential neuroleptic malignant syndrome. These cases were reviewed in detail for evaluation of possible safety signals. They were all deemed serious, and in all cases, the patients recovered with appropriate treatment.
Cases ZON1000813 and ZON1000929 are adult cases from Japan. In both cases the patients carried a diagnosis of Parkinson's disease (PD) and were enrolled in a double blind, placebo controlled […] study of zonisamide as a potential treatment for PD (Protocol AD81 ON-202-1). […]
Estimates of exposure, based upon retail and mail order prescriptions, indicate that the number of unique patients taking zonisamide capsules in the U.S. is about 37,276 (total prescriptions per year/average number of prescriptions per patient per year less a calculated percentage decrease based on estimated annual dropouts) in the time between approval in 2000 and December 2002. […] Similarly, the incidences of NMS estimated herein are unlikely to be higher than calculated. Based on the exposure data and number of NMS cases, the incidence of NMS in the U.S. and Japan is calculated to be about 1:37,276 unique patients and 1:592,588 unique patients, respectively.

rat hippocampal slices = conditions: 10-30 μg/mL; cited from earlier work
[6] = test system: voltage-dependent, transient inward currents (T-type Ca^2+ currents); conditions: in vitro; cited from earlier work
hepatic enzyme = conditions: cited from earlier work

NS(=O)(=O)Cc1noc2ccccc12 [zonisamide, 1,2-benzisoxazole-3-methanesulfonamide]
carbonic anhydrase inhibition compared to acetazolamide (carbonic anhydrase): 1/50
effect on sodium channels (sodium channels): blocks sodium channels
changes in chloride flux [1]: does not produce changes in chloride flux
binding to the GABA/benzodiazepine receptor ionophore complex ([1]; in an allosteric fashion): binds
dopaminergic and serotonergic neurotransmission [2]: facilitates
synaptically-driven electrical activity [3]: suppresses
postsynaptic GABA or glutamate responses ([3]; cultured mouse spinal cord neurons): without affecting
appearance of NMS symptoms after cessation of zonisamide therapy ([4]; Phase II study (Example 1)): 2 days
appearance of NMS symptoms after cessation of study medication ([4]; Phase II study, blind not broken (Example 2)): 14 days
cases that fulfill the criteria of potential neuroleptic malignant syndrome [5]: 3 cases
incidence of NMS [5]: about 1:37,276 unique patients
neuronal or glial uptake of [3H]-GABA (rat hippocampal slices): without affecting
effect on voltage-dependent, transient inward currents (T-type Ca2+ currents) [6]: reduces
hepatic enzyme induction (hepatic enzyme): not known to be a hepatic enzyme inducer
